The source of these data is ChEMBL document CHEMBL5325393, “A mini-review on synthesis and antiviral activity of natural product oxetanocin A derivatives” (Bioorg Med Chem, 2022).

Assay [1] concerns Human immunodeficiency virus 1. The experiment in a line: Antiviral activity against HIV-1 III B infected in PBMC assessed as inhibition of viral replication at 100 microM relative to control. In kind it is functional. The conditions noted are these: Human immunodeficiency virus 1, III B.
Assay [2] concerns Human immunodeficiency virus 2. In words: Antiviral activity against HIV-2 D194 infected in PBMC assessed as inhibition of viral replication at 45 microM relative to control. In kind it is functional. Conditions: Human immunodeficiency virus 2, D194, PBMC.
In assay [3] the test system is CEM. In words: Inhibition of HIV reverse transcriptase in human CEM cells at 400 uM relative to control. The class given is cell-based. Conditions: Human immunodeficiency virus.
The test system of assay [4] is Human immunodeficiency virus 1. The experiment in a line: Antiviral activity against HIV-1 infected in human CEM cells assessed as inhibition of cytopathogenicity at 400 uM relative to control. Conditions: Human immunodeficiency virus 1, CCRF-CEM. The class given is functional. For orientation: Cytopathic effects are the visible damage that an infection or toxin causes in cultured cells.

Turning to `Nc1nc2c(ncn2[C@H]2C[C@@](F)(CO)C2)c(=O)[nH]1`, the inhibition – broadly, the share of the control response that was lost under treatment – at 100 µM in assay [1] came to 30%. In addition, the inhibition at 45 µM in assay [2] stood at 50%.

In the case of `Nc1nc2c(ncn2[C@H]2C[C@@](O)(CO)C2)c(=O)[nH]1`, the inhibition in assay [3] was below 50%. The inhibition at 400 µM in assay [4] came to 59%.
